Laboratory results taken from ChEMBL document CHEMBL1201862, “PubChem BioAssay data set” (2004).
The source made the active and inactive calls.

Assays:
[1] = biological target: T1, Corticotropin-releasing factor receptor 2/Corticotropin-releasing factor-binding protein (Homo sapiens, UniProt P24387+Q13324); experiment: Dose Response confirmation of uHTS hits for small molecule antagonists of the CRF-binding protein and CRF-R2 receptor complex.; type: functional; conditions: read-out: IC50_Mean
T1 sequence (Q13324 whole entry): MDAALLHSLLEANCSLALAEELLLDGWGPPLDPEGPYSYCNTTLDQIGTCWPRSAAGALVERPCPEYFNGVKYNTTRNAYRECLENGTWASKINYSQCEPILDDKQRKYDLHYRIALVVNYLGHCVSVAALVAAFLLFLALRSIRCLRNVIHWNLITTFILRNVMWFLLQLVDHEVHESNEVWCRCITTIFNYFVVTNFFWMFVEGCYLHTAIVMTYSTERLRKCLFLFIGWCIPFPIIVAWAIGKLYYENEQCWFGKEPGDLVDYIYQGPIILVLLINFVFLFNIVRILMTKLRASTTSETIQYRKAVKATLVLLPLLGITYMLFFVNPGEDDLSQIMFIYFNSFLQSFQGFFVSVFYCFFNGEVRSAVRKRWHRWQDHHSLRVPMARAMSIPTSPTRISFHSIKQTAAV
T1 sequence (P24387 whole entry): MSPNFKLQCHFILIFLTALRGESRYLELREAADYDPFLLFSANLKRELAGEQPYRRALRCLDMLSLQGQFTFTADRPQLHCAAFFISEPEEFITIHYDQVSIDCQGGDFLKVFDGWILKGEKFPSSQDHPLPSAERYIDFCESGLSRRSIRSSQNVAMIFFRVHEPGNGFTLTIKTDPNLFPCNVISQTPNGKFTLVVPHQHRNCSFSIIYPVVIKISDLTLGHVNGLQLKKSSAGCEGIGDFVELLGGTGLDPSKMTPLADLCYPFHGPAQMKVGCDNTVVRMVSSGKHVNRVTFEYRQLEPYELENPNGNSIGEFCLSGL

[2] = CRF-BP/CRF-R2 complex antagonists, dose response, cell-based, uHTS hits, 384-well (AID 651639); type: functional, Homo sapiens; conditions: read-out: IC50_Mean
[3] = biological target: T1, Corticotropin-releasing factor receptor 2/Corticotropin-releasing factor-binding protein; experiment: activators of CRF receptor 2 with binding protein – uHTS hits, confirmation (AID 602473); type: functional; conditions: read-out: EC50_Mean
[4] = biological target: Adenosylmethionine-8-amino-7-oxononanoate aminotransferase (Mycobacterium tuberculosis, UniProt P9WQ81); experiment: Mycobacterium tuberculosis BioA enzyme inhibitor Measured in Biochemical System Using Plate Reader - 2163-02_Inhibitor_Dose_CherryPick_Activity.; type: functional, Mycobacterium tuberculosis UT205
Sequence of Adenosylmethionine-8-amino-7-oxononanoate aminotransferase (P9WQ81 whole entry): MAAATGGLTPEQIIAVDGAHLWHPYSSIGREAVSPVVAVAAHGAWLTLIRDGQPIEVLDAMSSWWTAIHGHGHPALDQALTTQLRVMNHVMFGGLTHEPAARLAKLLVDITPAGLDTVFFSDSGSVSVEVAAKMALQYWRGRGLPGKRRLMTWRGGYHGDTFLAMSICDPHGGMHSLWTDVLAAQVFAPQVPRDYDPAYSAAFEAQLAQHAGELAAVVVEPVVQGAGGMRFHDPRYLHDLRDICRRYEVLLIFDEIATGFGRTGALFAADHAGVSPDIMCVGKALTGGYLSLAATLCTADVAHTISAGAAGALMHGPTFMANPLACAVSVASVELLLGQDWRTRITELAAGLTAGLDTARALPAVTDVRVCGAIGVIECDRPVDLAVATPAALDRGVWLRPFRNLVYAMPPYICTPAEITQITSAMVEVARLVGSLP

[5] = biological target: T2, Polyadenylate-binding protein 1 (Homo sapiens, UniProt P11940); experiment: PABP1 MLLE–PAM2 interaction inhibitors, dose response, miRNA deadenylation inhibitor project, biochemical, fluorescence polarization, Cy5-PAM2 peptide, secondary (AID 602260); type: functional; conditions: read-out: IC50_Mean
T2 sequence (P11940 whole entry): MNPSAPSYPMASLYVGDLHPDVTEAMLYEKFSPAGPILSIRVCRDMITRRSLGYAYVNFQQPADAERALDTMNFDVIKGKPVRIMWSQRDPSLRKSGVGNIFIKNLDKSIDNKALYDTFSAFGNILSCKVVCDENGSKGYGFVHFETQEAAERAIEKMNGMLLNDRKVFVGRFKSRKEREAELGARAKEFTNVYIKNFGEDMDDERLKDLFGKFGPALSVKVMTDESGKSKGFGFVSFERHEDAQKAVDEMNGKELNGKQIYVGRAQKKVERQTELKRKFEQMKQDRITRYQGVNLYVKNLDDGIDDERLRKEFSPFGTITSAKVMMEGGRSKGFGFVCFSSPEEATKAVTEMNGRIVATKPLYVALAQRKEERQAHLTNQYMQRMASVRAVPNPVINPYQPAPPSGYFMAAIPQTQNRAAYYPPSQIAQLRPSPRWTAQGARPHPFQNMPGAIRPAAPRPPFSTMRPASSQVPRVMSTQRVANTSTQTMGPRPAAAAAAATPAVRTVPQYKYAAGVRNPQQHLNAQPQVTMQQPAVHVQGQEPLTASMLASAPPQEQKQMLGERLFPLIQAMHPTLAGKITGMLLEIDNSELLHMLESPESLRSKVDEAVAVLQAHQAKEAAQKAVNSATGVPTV

[6] = biological target: T2, Polyadenylate-binding protein 1; experiment: PABP1 MLLE–PAM2 binding inhibitor potency, dose response, biochemical, fluorescence polarization, FITC-PAM2 peptide (AID 602259); type: functional; conditions: read-out: IC50_Mean
[7] = biological target: Protein Wnt-3a (Mus musculus, UniProt P27467); experiment: Wnt3a-driven reporter signaling inhibition, dose response, selectivity assay for Gli-SUFU antagonist project, Wnt-LIGHT cells, luminescence (AID 651570); type: functional; conditions: read-out: IC50_Mean;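 further: Wnt-LIGHT reporter cells stimulated with conditioned medium from Wnt3a-producing cells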
Sequence of Protein Wnt-3a (P27467 whole entry): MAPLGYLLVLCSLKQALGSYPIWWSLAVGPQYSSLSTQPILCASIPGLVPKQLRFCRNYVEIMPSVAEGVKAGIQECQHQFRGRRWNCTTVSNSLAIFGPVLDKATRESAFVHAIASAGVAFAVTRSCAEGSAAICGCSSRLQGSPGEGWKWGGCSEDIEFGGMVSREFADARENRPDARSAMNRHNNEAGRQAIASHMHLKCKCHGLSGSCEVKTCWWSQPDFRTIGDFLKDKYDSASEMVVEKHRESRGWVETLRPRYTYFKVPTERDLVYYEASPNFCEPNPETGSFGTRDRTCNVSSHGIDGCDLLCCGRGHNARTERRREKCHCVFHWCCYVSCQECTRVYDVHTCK

[8] = system: INS1; experiment: beta cell apoptosis inhibitors, cytokine rescue, dose response, luminescence, retest (AID 449756); type: functional, cell-based; conditions: Rattus norvegicus;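 further: cell death triggered by IL-1 beta plus TNF-alpha plus IFN-gamma mixture; protective hits raise ATP signal compared with cytokine alone wells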
[9] = StAR promoter reporter inhibition counter-screen, dose response, counter-screen for LRH-1 inverse agonist project, cell-based, luminescence, luciferase reporter (AID 651969); type: functional
[10] = biological target: Nuclear receptor subfamily 5 group A member 2 (Homo sapiens, UniProt O00482); type: functional, cell-based;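 further: HEK293T cells transfected with LRH-1 and a StAR promoter luciferase reporter; potency for inhibitors that lower LRH-1 driven reporter light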
Sequence of Nuclear receptor subfamily 5 group A member 2 (O00482 whole entry): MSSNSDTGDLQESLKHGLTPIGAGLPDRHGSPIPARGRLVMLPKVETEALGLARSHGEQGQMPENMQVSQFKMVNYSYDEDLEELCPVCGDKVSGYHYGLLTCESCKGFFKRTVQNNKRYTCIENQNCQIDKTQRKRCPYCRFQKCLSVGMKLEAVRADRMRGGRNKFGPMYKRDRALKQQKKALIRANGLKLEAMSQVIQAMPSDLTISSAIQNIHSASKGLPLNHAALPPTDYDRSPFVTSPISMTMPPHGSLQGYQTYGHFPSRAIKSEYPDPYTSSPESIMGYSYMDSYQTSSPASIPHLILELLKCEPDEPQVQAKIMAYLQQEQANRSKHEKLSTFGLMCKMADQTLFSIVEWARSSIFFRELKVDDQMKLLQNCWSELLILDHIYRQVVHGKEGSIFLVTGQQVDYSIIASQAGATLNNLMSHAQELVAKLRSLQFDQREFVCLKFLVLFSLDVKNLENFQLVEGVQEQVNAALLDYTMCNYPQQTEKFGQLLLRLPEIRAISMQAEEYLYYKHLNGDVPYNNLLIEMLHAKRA

[11] = biological target: Steroidogenic factor 1 (Homo sapiens, UniProt Q13285); experiment: Counterscreen for inverse agonists of the liver receptor homolog-1 (LRH-1; NR5A2): Luminescence-based cell-based high throughput dose response assay to identify inverse agonists of the Steroidogenic Factor 1 Nuclear Receptor (SF1; NR5A1).; type: functional
Sequence of Steroidogenic factor 1 (Q13285 whole entry): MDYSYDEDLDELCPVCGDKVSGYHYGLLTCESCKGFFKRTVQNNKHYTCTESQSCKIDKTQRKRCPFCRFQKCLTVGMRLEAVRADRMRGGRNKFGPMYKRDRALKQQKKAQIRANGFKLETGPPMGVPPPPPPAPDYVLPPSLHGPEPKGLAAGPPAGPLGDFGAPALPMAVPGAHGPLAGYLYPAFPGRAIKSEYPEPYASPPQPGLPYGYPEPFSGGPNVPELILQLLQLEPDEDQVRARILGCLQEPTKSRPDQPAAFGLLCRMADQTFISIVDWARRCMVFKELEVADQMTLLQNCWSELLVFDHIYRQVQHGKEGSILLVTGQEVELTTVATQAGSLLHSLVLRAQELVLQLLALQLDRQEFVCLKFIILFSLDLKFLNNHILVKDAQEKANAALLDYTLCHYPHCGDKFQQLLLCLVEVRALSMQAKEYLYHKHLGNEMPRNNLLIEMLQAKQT

[12] = biological target: T3, Histone-lysine N-methyltransferase NSD2 (Homo sapiens, UniProt O96028); type: biochemical
T3 sequence (O96028 whole entry): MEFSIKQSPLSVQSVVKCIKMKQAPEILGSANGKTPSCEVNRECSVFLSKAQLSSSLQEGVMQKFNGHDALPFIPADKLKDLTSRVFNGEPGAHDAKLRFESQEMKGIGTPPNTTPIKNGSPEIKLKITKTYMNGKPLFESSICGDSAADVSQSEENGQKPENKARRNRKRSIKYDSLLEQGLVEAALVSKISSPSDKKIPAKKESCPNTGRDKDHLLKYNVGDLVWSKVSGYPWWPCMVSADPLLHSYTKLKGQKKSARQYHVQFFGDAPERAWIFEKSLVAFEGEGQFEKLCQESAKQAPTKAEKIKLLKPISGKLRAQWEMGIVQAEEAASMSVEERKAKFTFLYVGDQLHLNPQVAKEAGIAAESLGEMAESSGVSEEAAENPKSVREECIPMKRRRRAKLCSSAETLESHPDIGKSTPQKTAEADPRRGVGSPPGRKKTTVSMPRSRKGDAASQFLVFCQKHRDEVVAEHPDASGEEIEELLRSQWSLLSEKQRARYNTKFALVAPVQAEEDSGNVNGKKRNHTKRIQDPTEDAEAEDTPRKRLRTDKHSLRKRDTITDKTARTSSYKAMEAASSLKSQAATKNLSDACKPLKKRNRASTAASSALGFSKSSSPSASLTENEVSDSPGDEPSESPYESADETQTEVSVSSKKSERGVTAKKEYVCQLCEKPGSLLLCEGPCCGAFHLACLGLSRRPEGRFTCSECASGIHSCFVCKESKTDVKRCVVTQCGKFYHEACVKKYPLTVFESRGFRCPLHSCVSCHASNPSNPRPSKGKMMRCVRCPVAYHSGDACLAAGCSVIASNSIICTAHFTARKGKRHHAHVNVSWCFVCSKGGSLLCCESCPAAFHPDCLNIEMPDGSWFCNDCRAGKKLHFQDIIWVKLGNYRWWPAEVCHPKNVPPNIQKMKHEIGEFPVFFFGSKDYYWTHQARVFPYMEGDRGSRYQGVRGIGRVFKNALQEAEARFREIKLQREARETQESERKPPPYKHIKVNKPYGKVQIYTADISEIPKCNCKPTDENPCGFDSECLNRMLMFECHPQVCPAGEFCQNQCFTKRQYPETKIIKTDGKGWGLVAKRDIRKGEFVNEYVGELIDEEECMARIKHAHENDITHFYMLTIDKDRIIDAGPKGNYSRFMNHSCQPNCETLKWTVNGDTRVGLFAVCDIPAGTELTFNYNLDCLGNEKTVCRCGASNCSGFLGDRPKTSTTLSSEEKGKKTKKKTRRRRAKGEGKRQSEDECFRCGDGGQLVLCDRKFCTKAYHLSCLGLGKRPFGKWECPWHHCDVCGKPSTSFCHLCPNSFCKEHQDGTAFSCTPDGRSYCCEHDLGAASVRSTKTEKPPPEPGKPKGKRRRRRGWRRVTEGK

[13] = biological target: T4, Apoptotic protease-activating factor 1 (Homo sapiens, UniProt O14727); type: functional
T4 sequence (O14727 whole entry): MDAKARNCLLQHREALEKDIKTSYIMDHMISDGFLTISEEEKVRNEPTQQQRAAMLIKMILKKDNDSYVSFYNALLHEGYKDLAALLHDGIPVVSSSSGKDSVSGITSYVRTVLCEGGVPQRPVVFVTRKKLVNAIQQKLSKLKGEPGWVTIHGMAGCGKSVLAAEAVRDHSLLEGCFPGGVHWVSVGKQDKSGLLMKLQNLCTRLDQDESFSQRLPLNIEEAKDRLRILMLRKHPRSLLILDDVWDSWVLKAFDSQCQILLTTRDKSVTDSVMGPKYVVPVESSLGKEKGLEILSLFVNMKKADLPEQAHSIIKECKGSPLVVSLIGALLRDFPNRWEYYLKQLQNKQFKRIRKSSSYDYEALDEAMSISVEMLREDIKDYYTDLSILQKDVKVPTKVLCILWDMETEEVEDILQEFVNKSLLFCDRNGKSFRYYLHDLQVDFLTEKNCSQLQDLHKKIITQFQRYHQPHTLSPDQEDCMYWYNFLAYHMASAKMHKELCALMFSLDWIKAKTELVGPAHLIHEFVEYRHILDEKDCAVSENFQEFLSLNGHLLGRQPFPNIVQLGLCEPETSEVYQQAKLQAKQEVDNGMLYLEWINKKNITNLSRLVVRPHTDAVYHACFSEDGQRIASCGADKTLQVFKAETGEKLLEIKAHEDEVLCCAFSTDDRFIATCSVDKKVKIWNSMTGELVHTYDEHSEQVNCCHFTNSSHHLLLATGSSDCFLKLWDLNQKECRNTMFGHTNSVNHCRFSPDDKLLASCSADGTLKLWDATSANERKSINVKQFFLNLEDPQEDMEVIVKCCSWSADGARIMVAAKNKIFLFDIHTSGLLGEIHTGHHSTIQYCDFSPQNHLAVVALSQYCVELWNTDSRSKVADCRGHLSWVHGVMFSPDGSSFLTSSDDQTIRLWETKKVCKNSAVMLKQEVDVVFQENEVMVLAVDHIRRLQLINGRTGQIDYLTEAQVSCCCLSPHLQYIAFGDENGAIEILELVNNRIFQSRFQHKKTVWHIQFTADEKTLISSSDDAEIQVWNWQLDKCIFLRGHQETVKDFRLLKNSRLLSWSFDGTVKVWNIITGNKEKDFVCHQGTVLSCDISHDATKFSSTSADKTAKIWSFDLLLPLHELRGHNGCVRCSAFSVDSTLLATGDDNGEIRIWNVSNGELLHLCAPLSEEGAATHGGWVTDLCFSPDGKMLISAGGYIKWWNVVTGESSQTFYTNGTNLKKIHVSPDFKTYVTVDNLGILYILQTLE

[14] = cytotoxicity in HPDE-C7 cells, cell-based, fluorescence, HTS (AID 430); type: functional; conditions: Homo sapiens
[15] = ARNT/TACC3 interaction disruptors, potency, confirmation, biochemical, AlphaScreen, cherry-picked samples (AID 651703); type: functional, Homo sapiens;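 further: His-tagged ARNT PAS-B domain paired with GST-TACC3 E629A dimer coactivator fragment; potency of inhibitors that break up the complex and lower AlphaScreen signal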
[16] = cytotoxicity in KRAS-transformed pancreatic duct cells, primary screen, cell-based, fluorescence, HTS (AID 431); type: functional; conditions: Homo sapiens;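 further: cell line used: HPDE-C7K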
[17] = control 3'UTR Renilla luciferase suppression, dose response, counter-screen for Shn3 inhibitor project, cell-based, Clone20-Shn3RL, cherry-picked (AID 624133); type: functional
[18] = Shn3 3'UTR reporter inhibitors, dose response, cell-based, Clone20 osteoblasts, firefly luciferase, cherry-picked (AID 624132); type: functional;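 further: firefly luciferase luminescence from reporter carrying the Shn3 3'UTR in osteoblasts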
[19] = biological target: DNA repair and recombination protein RAD54-like (Homo sapiens, UniProt Q92698); experiment: inhibitors of human RAD54 branch migration, confirmation, biochemical, fluorescence, cherry-picked samples, dose series (AID 651657); type: functional
Sequence of DNA repair and recombination protein RAD54-like (Q92698 whole entry): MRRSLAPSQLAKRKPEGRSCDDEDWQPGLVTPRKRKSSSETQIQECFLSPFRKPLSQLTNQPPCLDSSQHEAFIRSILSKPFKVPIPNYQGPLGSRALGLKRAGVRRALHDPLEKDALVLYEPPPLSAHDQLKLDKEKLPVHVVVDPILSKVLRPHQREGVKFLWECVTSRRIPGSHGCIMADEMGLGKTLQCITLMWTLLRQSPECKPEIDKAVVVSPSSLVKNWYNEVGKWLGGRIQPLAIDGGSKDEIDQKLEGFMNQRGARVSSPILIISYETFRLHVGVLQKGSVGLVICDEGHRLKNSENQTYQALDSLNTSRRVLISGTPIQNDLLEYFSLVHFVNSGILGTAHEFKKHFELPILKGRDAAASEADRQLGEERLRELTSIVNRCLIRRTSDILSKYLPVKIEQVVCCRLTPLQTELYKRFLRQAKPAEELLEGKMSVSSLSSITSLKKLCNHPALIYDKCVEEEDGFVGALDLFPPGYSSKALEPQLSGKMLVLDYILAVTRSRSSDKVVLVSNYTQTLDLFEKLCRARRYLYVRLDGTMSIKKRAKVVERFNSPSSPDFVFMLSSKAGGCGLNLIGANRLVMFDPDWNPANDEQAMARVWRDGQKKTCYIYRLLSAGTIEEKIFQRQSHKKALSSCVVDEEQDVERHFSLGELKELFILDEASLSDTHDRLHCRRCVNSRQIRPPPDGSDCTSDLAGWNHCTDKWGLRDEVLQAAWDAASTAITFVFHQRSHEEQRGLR

[20] = HepG2 cell cytotoxicity, dose response, cytotoxicity control for Shn3 inhibitor project, CellTiter-Glo, cherry-picked (AID 624134); type: functional, cell-based
[21] = microbe, parasite or virus in culture; type: functional; conditions: Mycobacterium tuberculosis
[22] = system: HEK293; experiment: inhibitors of LMP1-driven NF-kB reporter, dose response, cell-based, HEK293, luciferase, cherry-pick (AID 588343); type: functional; conditions: Homo sapiens
[23] = biological target: T5, Interleukin-8 (Homo sapiens, UniProt P10145); experiment: Dose Response confirmation of uHTS small molecule hits for cystic fibrosis induced NFkb Inhibitors in a PAF-induced IL8 counterscreen.; type: functional; conditions: read-out: IC50_Mean
T5 sequence (P10145 whole entry): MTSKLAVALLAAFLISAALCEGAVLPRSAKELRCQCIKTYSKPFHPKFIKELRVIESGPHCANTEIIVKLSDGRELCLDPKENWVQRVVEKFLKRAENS

[24] = system: Vero; experiment: cells; type: functional; conditions: Chlorocebus sabaeus

Nc1nnc(SCc2ccc(F)cc2Cl)s1
IC50 [1]: 14.3 µM (active)
IC50 [2]: 0.941 µM (active)
EC50 [3]: > 53 µM (inactive)

CC(=O)c1ccc(C(=O)N2CCCC(C(=O)c3ccc(Cl)cc3)C2)s1 (stereo unspecified)
AC50 [4]: 2.51 µM (active)

CC(C)C(=O)Nc1ccc(NC(=S)NC(=O)c2ccc([N+](=O)[O-])cc2)cc1
IC50 [5]: > 66 µM (inactive)
IC50 [6]: > 66 µM (inactive)

Cc1sc2ncnc(NCC(O)c3ccc([N+](=O)[O-])cc3)c2c1C (stereo unspecified)
IC50 [7]: 0.544 µM (active)
AC50 [8]: 3.56 µM (active)

COc1ccc(C2Nc3ccccc3C(=O)N2c2ccccc2)cc1CSc1ccccn1 (stereo unspecified)
IC50 [1]: 2.16 µM (active)
IC50 [2]: 17.3 µM (active)
EC50 [3]: > 53 µM (inactive)

O=C(COc1ccc2c3c(c(=O)oc2c1)CCCC3)NCc1ccccn1
IC50 [9]: 35.9 µM (inactive)
IC50 [10]: 35.9 µM (inactive)
IC50 [11]: 35.9 µM (inactive)

COCCCn1c(N)c(C(=O)NCCC(C)C)c2nc3ccccc3nc21
AC50 [12]: 15.9 µM (active)
IC50 [13]: 46.2 µM (active)
EC50 [14]: 11.3 µM (active)
AC50 [15]: 74.7 µM (active)
EC50 [16]: 12 µM (active)

O=C(N[C@@H]1C/C=C\C[C@H](CC(=O)N(CCO)Cc2ccccc2)C(=O)NC[C@@H](c2ccccc2)OC1=O)OCC1c2ccccc2-c2ccccc21
IC50 [7]: 4.4 µM (active)
AC50 [17]: 4.9 µM (active)
AC50 [18]: 4.5 µM (active)

CCCc1cc(=O)oc2cc(C)cc(OCC(=O)NC3CC3)c12
IC50 [9]: 35.9 µM (inactive)
IC50 [10]: 1.31 µM (active)
IC50 [11]: 0.0932 µM (active)

Cc1ccnc(SC2CC(=O)N(c3ccccc3)C2=O)n1 (stereo unspecified)
IC50 [5]: > 66 µM (inactive)
IC50 [6]: > 66 µM (inactive)

CNC(=O)C[C@H]1CC[C@@H]2[C@H](COC[C@@H](O)CN2C(=O)Nc2cccc(OC)c2)O1
AC50 [4]: 4.57 µM (active)

CC(N)c1csc(Nc2nncc3ccccc23)n1 (stereo unspecified)
AC50 [19]: 28.5 µM (active)

CCOC(=O)Oc1c(OC)cc(C(=O)O[C@@H]2C[C@@H]3CN4CCc5c([nH]c6cc(OC)ccc56)[C@H]4C[C@@H]3[C@H](C(=O)OC)[C@H]2OC)cc1OC [SYROSINGOPINE]
AC50 [20]: 50.6 µM (active)
CC50 [21]: 24.6 µM (active)
AC50 [22]: 24.6 µM (active)
IC50 [23]: > 79 µM (inactive)
AC50 [17]: 22.4 µM (active)
AC50 [18]: 10.7 µM (active)
CC50 [24]: 11.9 µM (active)
